Values quoted from earlier work, collected in patent publication US20100136096A1, “Systems for modulating inflammation” (Searete LLC, a limited liability corporation of the State …, priority 2008, published 2010).

How the values were obtained:
Src family kinase = conditions: Sanjuan et al. 2006
lethal septic shock = conditions: mice; Nakamura et al. 2007
[1] = single agent, 400 mg infused over one hour; Looareesuwan et al. 1986
[2] = system: Src family kinases (Src, Lck, Yes, Fyn); conditions: at nanomolar concentrations
proteasomal activity = conditions: cultured breast cancer cells; disulfiram bound to copper; Chen et al. 2006

## CCN(CC)CCCC(C)Nc1ccnc2cc(Cl)ccc12 (stereo not drawn) [Chloroquine]
Src family kinase
  inhibition of CpG-induced Src family kinase activation, or its dependent cellular responses: does not inhibit

## Cl.Cl.Nc1ccccc1Oc1ccc2c(N)nsc2c1 [Example M62812, 3-amino-6-(2-aminophenoxy)-1,2-benzisothiazole dihydrochloride]
Lethal septic shock
  prevention of lethal septic shock: prevents lethal septic shock

## CCN(CC)CCCC(C)Nc1ccnc2cc(Cl)ccc12.O=P(O)(O)O.O=P(O)(O)O (stereo not drawn) [chloroquine phosphate, 7-chloro-4-[[4-(diethylamino)-1-methylbutyl]amino]quinoline phosphate (1:2)]
[1]
  tolerability of intravenous infusion: without complication

## Cc1nc(Nc2ncc(C(=O)Nc3c(C)cccc3Cl)s2)cc(N2CCN(CCO)CC2)n1.O [dasatinib, N-(2-chloro-6-methylphenyl)-2-[[6-[4-(2-hydroxyethyl)-1-piperazinyl]-2-methyl-4-pyrimidinyl]amino]-5-thiazolecarboxamide, monohydrate]
[2]
  inhibition of Src family kinases (Src, Lck, Yes, Fyn): inhibits

## CCN(CC)C(=S)SSC(=S)N(CC)CC [disulfiram, 1-(diethylthiocarbamoyldisulfanyl)-N,N-diethyl-methanethioamide]
Proteasomal activity
  proteasomal activity: inhibits proteasomal activity
Aldehyde dehydrogenase
  inhibition of aldehyde dehydrogenase: inhibits aldehyde dehydrogenase without toxicity
